Test results: US7925520B2, “Methods of predicting dose of drug and program for predicting dose of drug” (priority 2007, dated 2011)
Several values for one entry are separate records, joined by “and”; a condition that tells them apart may be missing. Equal values may be shown once. Read-outs that look alike come from different tables or passages of the source.

Tests used:
[1] = Measurement 1: migration M of drug ion to skin with membrane type iontophoresis device; assay type: in vitro ADME, rat; details: for LogM: log of migration M, 6.25 mM, 0.94 mA, 60 minutes; for LogM / M (migration of drug ion to skin): rat back skin; for M (migration of drug ion to skin): 6.25 mM drug solution, constant current 0.94 mA for 60 minutes, average of 3
Text: (§1) In some embodiments, a working side assembly 10 of the device 1 may include a working side electrode (negative electrode) 11; an electrolyte solution holding portion 12 for holding a physiological salt solution; a cation exchange membrane 13 on the front surface side of the electrolyte solution holding portion; a drug solution holding portion 14 for holding a drug solution on the front surface side of the cation exchange membrane 13; and an anion exchange membrane 15 on the front surface side of the drug solution holding portion.
(§2) In some embodiments, a non-working side assembly 20 of the device 1 may include a non-working side electrode (positive electrode) 21; an electrolyte solution holding portion 22 for holding a physiological salt solution; an anion exchange membrane 23 on the front surface side of the electrolyte solution holding portion 22; an electrolyte solution holding portion 24 for holding a physiological salt solution on the front surface side of the anion exchange membrane 23; and a cation exchange membrane 25 on the front surface side of the electrolyte solution holding portion 24. It should be noted that an ion exchange membrane CLE 04-2 manufactured by Tokuyama Co., Ltd. was used as each of the ion exchange membrane 13 and the ion exchange membrane 25, and an ion exchange membrane ALE 04-2 manufactured by Tokuyama Co., Ltd. was used as each of the ion exchange membrane 15 and the ion exchange membrane 23.
Energization was performed in a state where a corium layer 32 was brought into contact with the physiological salt solution of the electrolyte solution holding portion 26. After energization, the skin 30 was frozen and processed.
The above measurement was performed 3 times for each sample, and the average value of the measurements was determined as the migration M.

[2] = Measurement 2: migration C of drug ion under skin-absent condition (through anion exchange membrane into physiological salt solution); assay type: physicochemical; details: for C (migration of drug ion under skin-absent condition): 6.25 mM drug solution, constant current 0.94 mA for 60 minutes, average of 3; for LogC: log of migration C, 6.25 mM, 0.94 mA, 60 minutes
Text: as §1, §2
The drug solution composition of the drug solution holding portion 14, energization conditions, and the like were identical to those of Measurement 1.
The above measurement was performed 3 times for each sample, and the average value of the measurements was determined as the migration C.

[3] = value from Scifinder database, cited from earlier work; for PSA: in Å2 (unit assumed)
[4] = Measurement 3: migration R of drug ion to liposome; assay type: physicochemical; details: 20 mM EPC liposome and 3.125 mM drug solution 1:1 by volume; 37° C., 18 hours; average of 3
Experimental: 20 mM of an EPC liposome (yolk phosphatidylcholine (lecithin)/particle diameter 290 to 490 nm) and 3.125 mM of a drug solution were mixed at a volume ratio of 1:1, and the mixture was incubated at 37° C. for 18 hours. After that, the resultant was centrifuged, and the amount of a drug ion in each of the supernatant and the precipitate was measured by HPLC, whereby the amount of the drug ion (unit: nmol/cm^3) that had migrated to the EPC liposome was measured.
The above measurement was performed 3 times for each sample, and the average value of the measurements was determined as the migration R.

[5] = Prediction of Log(M*/C) from measured C and R by Equation 2; set-up: species or system rat; details: M* determined as a function of measured C and R values (Eq. 2)

Compound	Log(M/C) [1]	C (migration of drug ion under skin-absent condition) [2]	LogC [2]	LogR (migration R of drug ion to liposome) [4]	Predicted Log(M*/C) [5]	Log(M/C) ([1]; from measured M and C)	LogM [1]	PSA [3]	LogD [3]	LogP [3]	M (migration of drug ion to skin) [1] [nmol/mL]
1-Naphtaleneacetic acid [Napthaleneacetic acid]	−0.8	4806 nmol/mL	3.68	−0.47	−1.03			37 and 37.3			
CCc1cccc2c3c([nH]c12)C(CC)(CC(=O)O)OCC3 (centres unmarked) [Etodolac]			3.41		−0.54	−0.93	2.48				
O=C(O)Cc1ccc(-c2ccccc2)cc1 [Felbinac]		3409 nmol/mL	3.53	0.27					0.83	3.26	
O=C(O)CCCc1c[nH]c2ccccc12 [Indolebutylic acid, Indolebutyric acid]	−0.74	3744 nmol/mL and 3774 nmol/mL	3.58	−0.26	−0.87			53 and 53.1			
CC(C(=O)O)c1cccc(C(=O)c2ccccc2)c1 (centres unmarked) [Ketoprofen]		2432 nmol/mL	3.39	−0.29	−0.89			54	0.33		
O=C(O)c1ccccc1O [Salicylic acid]		6800 nmol/mL	3.83	−0.49	−1.04	−0.96	2.87	58	−1.08	2.06	749

The next lines start with results.

Log(M/C) [1]	C (migration of drug ion under skin-absent condition) [2]	LogC [2]	LogR (migration R of drug ion to liposome) [4]	Predicted Log(M*/C) [5]	Log(M/C) ([1]; from measured M and C)	LogM [1]	Compound	PSA [3]	LogD [3]	LogP [3]	M (migration of drug ion to skin) [1] [nmol/mL]
		2.86		0.1	0.3	3.16	O=C(O)Cc1ccccc1Nc1c(Cl)cccc1Cl [Diclofenac]				
	7822 nmol/mL	3.89	−0.69				O=C(O)Cc1c[nH]c2ccccc12 [Indoleacetic acid, 3-Indoleacetic acid]		−1.37	1.43	
	2189 nmol/mL	3.34	0.23	−0.49	−0.87	2.47	COc1ccc2c(c1)c(CC(=O)O)c(C)n2C(=O)c1ccc(Cl)cc1 [Indomethacin]	64	−0.13	3.11	296
